Test results from patent US10722518B2, “Oxazine derivative for use in the treatment or prevention of cerebral amyloid angiopathy” (Novartis AG, priority 2016, dated 2020).

Tested on: amyloid-beta in CD31-positive vessels
Assay: Assessment of CAA in APP23 mice by CD31/NT12 double fluorescence immunohistochemistry and image analysis
Format: in vivo, mouse
Protocol: Amyloid plaques were stained using a rabbit anti-Aβ primary antibody (NT12) which recognizes the C-terminal part of the amyloid peptide (the antibody was raised as described in Schrader-Fischer G and Paganetti P A, 1996, and Schrader-Fischer G et al., 1997). The vascular endothelial cells were detected using a rat anti-CD31 antibody (reference DIA310) from Dianova GmbH (Hamburg, Germany). All stainings were performed using the fully automated instrument Ventana Discovery® Ultra (Roche Diagnostics Schweiz AG, Rotkreuz, Switzerland). All chemicals were provided by Roche Diagnostic.
All study animals were used and brain tissue sections of 3 micrometers were freshly cut and collected on SuperFrost+ slides. The tissues sections were de-paraffinized and rehydrated under solvent-free conditions (EZprep solution) followed by antigen retrieval (demasking) performed by heat retrieval cycles for 32 min in a EDTA based buffer (CC1 solution). Subsequently, slides were blocked for 4 min using the DISCOVERY Inhibitor (reference 07017944001 (Roche)). The primary antibody diluted at 1/10′000 in antibody diluent was manually added on tissue sections and incubated for 1 h at room temperature. A short post-fixation (glutaraldehyde at 0.05%) was performed before applying the multimer UltraMap-anti Rabbit HRP ready to use antibody (reference 05269717001) for 16 min.
Detection was performed using the DISCOVERY FITC® following the manufacturer's recommendations. Slides were then heat denaturated at 92° C. for 20 min before a manual application of the second primary antibody (rat anti-CD31 diluted at 1/1′000 in antibody diluent) and incubated for 1 h. Multimer UltraMap-anti-Rat HRP antibody (reference 05891884001) was used for 20 min to detect CD31 in combination with the DISCOVERY Rhodamine kit (reference 07259883001).
The slides were washed and mounted using Prolong® Gold antifade reagent (reference P36931, ThermoFisher, Switzerland) and further scanned with the Hamamatsu slide scanner instrument (NanoZoomer 2.0 HT, scanning software NDP-Scan Vers. 2.5, Hamamatsu Photonics France, Swiss Office, Solothurn, Switzerland) at the 40× objective. The scanning settings were as follows: the exposure time with the DAPI filter was set at 28.5 ms as well as for the FITC filter and TRITC filter (detection of Rhodamine).
For the quantitative plaque and vessel-associated amyloid-beta evaluation based on image analysis, a proprietary image analysis platform (ASTORIA, Automated Stored Image Analysis) was developed based on MS Visual Studio 2010 and many functions from Matrox MIL V9 libraries (Matrox Inc, Quebec, Canada).
For the beta-amyloid plaque and vessel analysis, the following sequence of steps was performed: • Slides were scanned with Hamamatsu Nanozoomer at 40× magnification. […]

[1] = 0.03 g/kg food, 6 months, all CD31+ vessels
[2] = 0.03 g/kg food, 6 months, large CD31-positive vessels
[3] = 0.03 g/kg vs vehicle, all CD31+ vessels
[4] = 0.03 g/kg vs vehicle, large vessels
[5] = 0.03 g/kg vs vehicle, small + medium vessels

## C[C@@]1(c2nc(NC(=O)c3ncc(C(F)(F)F)cc3Cl)ccc2F)CO[C@@](C)(C(F)(F)F)C(N)=N1 [Compound 1, N-(6-((3R,6R)-5-amino-3,6-dimethyl-6-(trifluoromethyl)-3,6-dihydro-2H-1,4-oxazin-3-yl)-5-fluoropyridin-2-yl)-3-chloro-5-(trifluoromethyl)picolinamide]
0.03 g/kg food, 6 months
  % of large vessels with 0% Aβ: 9.14 ± 9.14%
  % of large vessels with 1-10% Aβ: 17.4 ± 1.63%
  % of large vessels with 10-25% Aβ: 11.2 ± 1.68%
  % of large vessels with 25-50% Aβ: 17.5 ± 2.63%
  % of large vessels with 50-75% Aβ: 27.7 ± 1.97%
  % of large vessels with >10% Aβ: 73.5 ± 3.4%
  % of large vessels with >75% Aβ: 17.0 ± 2.92%
  % of small + medium vessels with 0% Aβ: 63.7 ± 2.83%
  % of small + medium vessels with 1-10% Aβ: 22.3 ± 2.65%
  % of small + medium vessels with 10-25% Aβ: 4.86 ± 0.48%
  % of small + medium vessels with 25-50% Aβ: 3.55 ± 0.35%
  % of small + medium vessels with 50-75% Aβ: 2.5 ± 0.31%
  % of small + medium vessels with >10% Aβ: 14.0 ± 1.01%
  % of small + medium vessels with >75% Aβ: 3.11 ± 0.44%
  CAA Frequency (number small + medium vessels with >10% Aβ normalized to sample area, *10^7): 91 ± 5.9
  Number of large CD31+ vessels (normalized to total CD31 positive vessel numbers in %): 1.89 ± 0.17%
  Number of small + medium CD31+ vessels (normalized to total CD31 positive small + medium vessel numbers in %): 98.1 ± 0.17%
  Number small + medium vessels with >10% Aβ, mean ± SEM: 288 ± 21.9
  Total number CD31+ vessels (normalized to total sample area, *10^5), mean ± SEM: 6.52 ± 0.4
  Total vessel-associated NT12 area (normalized to total small + medium CD31+ vessel area): 0.286 ± 0.0313
[1]
  % of vessels with 0% Aβ: 60.3 ± 3.49%
  % of vessels with 1-10% Aβ: 23.2 ± 2.6%
  % of vessels with 10-25% Aβ: 5.65 ± 0.8%
  % of vessels with 25-50% Aβ: 4.06 ± 0.44%
  % of vessels with 50-75% Aβ: 3.13 ± 0.35%
  % of vessels with >10% Aβ: 16.5 ± 0.76%
  % of vessels with >75% Aβ: 3.7 ± 0.55%
  CAA Frequency (number vessels with >10% Aβ normalized to sample area, *10^7): 94 ± 6.5
  Number vessels with >10% Aβ, mean ± SEM: 319 ± 22.2
  Total vessel-associated NT12 area (normalized to total CD31+ area): 0.65 ± 0.07
[2]
  CAA Frequency (number vessels with >10% Aβ normalized to sample area, *10^7): 9.3 ± 1.0
  Number vessels with >10% Aβ, mean ± SEM: 29 ± 3.0
  Total vessel-associated NT12 area (normalized to total CD31+ area): 0.79 ± 0.05
0.03 g/kg vs vehicle
  % of large vessels with 0% Aβ, treatment effect vs vehicle: −18%
  % of large vessels with 1-10% Aβ, treatment effect vs vehicle: +19%
  % of large vessels with 10-25% Aβ, treatment effect vs vehicle: +60%
  % of large vessels with 25-50% Aβ, treatment effect vs vehicle: −9%
  % of large vessels with 50-75% Aβ, treatment effect vs vehicle: −15%
  % of large vessels with >10% Aβ, treatment effect vs vehicle: −1%
  % of large vessels with >75% Aβ, treatment effect vs vehicle: +12%
  % of small + medium vessels with 0% Aβ, treatment effect vs vehicle: −13%
  % of small + medium vessels with 1-10% Aβ, treatment effect vs vehicle: +76%
  % of small + medium vessels with 10-25% Aβ, treatment effect vs vehicle: +16%
  % of small + medium vessels with 25-50% Aβ, treatment effect vs vehicle: −9%
  % of small + medium vessels with 50-75% Aβ, treatment effect vs vehicle: −6%
  % of small + medium vessels with >10% Aβ, treatment effect vs vehicle: +1%
  % of small + medium vessels with >75% Aβ, treatment effect vs vehicle: 0%
  Total small + medium vessel-associated NT12 area (normalized to total CD31+ small + medium vessel area), treatment effect vs vehicle: +6% n.s.
[3]
  % of vessels with 0% Aβ, treatment effect vs vehicle: −17%
  % of vessels with 1-10% Aβ, treatment effect vs vehicle: +82%
  % of vessels with 10-25% Aβ, treatment effect vs vehicle: +34%
  % of vessels with 25-50% Aβ, treatment effect vs vehicle: −2%
  % of vessels with 50-75% Aβ, treatment effect vs vehicle: 0%
  % of vessels with >10% Aβ, treatment effect vs vehicle: +12%
  % of vessels with >75% Aβ, treatment effect vs vehicle: +12%
  CAA Frequency, treatment effect vs vehicle: −4% n.s.
  Number vessels with >10% Aβ, treatment effect vs vehicle: −10% n.s.
  Total vessel-associated NT12 area (normalized to total CD31+ area), treatment effect vs vehicle: +14% n.s.
[4]
  CAA Frequency, treatment effect vs vehicle: +20% n.s.
  Number vessels with >10% Aβ, treatment effect vs vehicle: +4% n.s.
  Total vessel-associated NT12 area (normalized to total CD31+ area), treatment effect vs vehicle: −1% n.s.
[5]
  CAA Frequency, treatment effect vs vehicle: +2% n.s.
  Number vessels with >10% Aβ, treatment effect vs vehicle: −12% n.s.
